From US9914712B2, “Antibacterial thiazolecarboxylic acids” (priority 2013, dated 2018)

Assays:
[1] = test system: NTBC023 strain: Klebsiella pneumoniae producing VIM-1+SHV-5; assay: MIC of meropenem in presence of the inhibitor, broth microdilution; format: cell-based; settings: compound at 100 μM, 37° C., 18-20 h
Procedure: (§1) The minimal inhibitory concentration (MIC) of meropenem in presence of the inhibitor is routinely assessed against 3 representative clinical strains: • NTBC020 Strain: Escherichia coli producing NDM-1+TEM-1+CTX-M-15, (isolated in Australia in 2009); • NTBC023 strain: Klebsiella pneumoniae producing VIM-1+SHV-5, (isolated in France in 2002); • NTBC062 strain: Klebsiella pneumoniae producing IMP-1+TEM-1, (isolated in France in 2012);
(§2) The assay was performed according to the standard broth microdilution method described by the Clinical and Laboratory Standards Institute (CLSI-M7-A7—Methods for dilution antimicrobial susceptibility tests for bacteria that grow aerobically; Approved standard; CLSI, Wayne, Pa., USA. 2006). This method involves the use of small volumes of broth dispensed in sterile, plastic 96-wells microdilution plates. The compounds were tested at a concentration of 100 μM and controls included the susceptibility tests for the three selected strains without the compounds and for the two reference strains E. coli ATCC 25922 and Pseudomonas aeruginosa ATCC 27853 as Quality Controls.
(§3) From a stock solution at 20 mM in DMSO, compounds were prepared by diluting 0.04 mL of the compound solution in 0.04 mL of Mueller-Hinton (MH) broth (2-fold dilution). Then, 0.001 mL of the compound dilution was distributed in the 96-wells microdilution plates to give a final concentration of 100 μM for a final volume of 0.1 mL by well.
(§4) From a meropenem stock solution at 10 mg/ml in water, meropenem 2-fold serial dilutions were prepared in MH broth at twice the desired final concentrations, e.g from 512 to 0.0037 μg/ml. The 96-wells microdilution plates were then filled with 0.05 mL of the meropenem dilutions. For each susceptibility test, two wells were left free of antibiotic and filled with 0.05 mL of sterile MH broth to serve as growth controls.
(§5) The bacterial inoculum was prepared by direct colony suspension from a 24 h-agar plate in saline solution (NaCl 9 g/L). The suspension was adjusted to a 0.5 MacFarland turbidity standard (1-2×10^8 CFU/mL) and then diluted 1:100 in MH broth. 0.05 mL of the bacterial dilution was then inoculated to each well giving a final volume of 0.1 mL and a final bacterial concentration of approximately 5×10^5 CFU/mL.
(§6) Microdilution plates were incubated at 37° C. in an ambient air incubator for 18-20 h.

[2] = test system: NTBC020 Strain: Escherichia coli producing NDM-1+TEM-1+CTX-M-15; assay: as above; format: cell-based; settings: compound at 100 μM, 37° C., 18-20 h
Procedure: as §1, §2, §3, §4, §5, §6

NTBC039 = assay: as above; format: cell-based; settings: compound at 100 μM, 37° C., 18-20 h
NDM-1 = target: T1, NDM-1 (Klebsiella pneumoniae, UniProt C7C422); assay: In vitro MBL inhibition assay, imipenem hydrolysis (NDM-1); format: biochemical; settings: Ki NDM-1, imipenem substrate, Ki from IC50 by Cheng-Prusoff, Km 70 μM
T1 construct: made in house
Procedure: NDM-1 is produced and purified as disclosed in Yong et al, Antimicrobial Agents & Chemotherapy, (2009) 53(12), 5046-54.
(§7) Reaction buffers were prepared in a UV-transparent 96-well microplate, which buffer contains 10 mM HEPES pH 7.5, 50 μM ZnSO4, 20 μg/mL BSA. An amount of 75 ng of protein was added to each well.
(§8) Spectrophometric assays are performed to determine NDM-1/VIM-2/IMP-1 carbapenemase activity using purified proteins (50 ng for NDM-1/VIM-2, 25 ng IMP-1) from NDM-1/VIM-2/IMP-1 expressing bacteria using […] of imipenem as substrate in 10 mM HEPES pH 7.5, 50 μM ZnSO4. MBL hydrolysis is measured at 299 nm for 10 minutes at 30° C. as the absorbance changes due to the opening of beta-lactam ring of the antibiotic.
(§9) The Ki values obtained for selected example compounds are shown in Table 3, where they are compared with the values for pyridine-2-carboxylic acid.

VIM-2 = target: T2, VIM-2 (Escherichia coli, UniProt Q5U7L7); assay: In vitro MBL inhibition assay, imipenem hydrolysis (VIM-2); format: biochemical; settings: Ki VIM-2, imipenem substrate, Ki from IC50 by Cheng-Prusoff, Km 9 μM
T2 construct: made in house
Procedure: The MBL enzyme VIM-2 is produced and purified as disclosed in Borgianni et al, Antimicrobial Agents & Chemotherapy, (2010), 54(8), 3197-3204.
as §7, §8, §9

IMP-1 = target: T3, IMP-1 (Serratia marcescens, UniProt P52699); assay: In vitro MBL inhibition assay, imipenem hydrolysis (IMP-1); format: biochemical; settings: Ki IMP-1, imipenem substrate, Ki from IC50 by Cheng-Prusoff, Km 25 μM
T3 construct: made in house
Procedure: The MBL enzyme IMP-1 is produced and purified as disclosed in Laraki et al, Antimicrobial Agents & Chemotherapy, (1999), 43(4), 902-906.
as §7, §8, §9

T1 sequence (C7C422 29-270 limits assumed): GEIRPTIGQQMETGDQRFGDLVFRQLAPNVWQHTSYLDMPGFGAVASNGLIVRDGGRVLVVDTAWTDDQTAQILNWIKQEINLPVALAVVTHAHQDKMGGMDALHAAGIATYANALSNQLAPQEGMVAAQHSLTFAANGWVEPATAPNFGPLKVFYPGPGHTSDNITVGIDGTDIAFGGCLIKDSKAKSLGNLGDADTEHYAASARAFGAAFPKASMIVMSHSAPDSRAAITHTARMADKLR
T3 sequence (P52699 19-246, species assumed): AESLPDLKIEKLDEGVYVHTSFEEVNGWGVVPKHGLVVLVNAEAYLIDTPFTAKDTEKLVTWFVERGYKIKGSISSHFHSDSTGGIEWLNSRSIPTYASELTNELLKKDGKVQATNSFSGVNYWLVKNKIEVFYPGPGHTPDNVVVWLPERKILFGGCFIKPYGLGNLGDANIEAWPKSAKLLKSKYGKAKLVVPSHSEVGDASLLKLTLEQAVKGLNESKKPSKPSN

Structure (SMILES) | MIC of meropenem, strain NTBC023 [1] | MIC of meropenem, strain NTBC020 [2] | MIC of meropenem, strain NTBC039 (NTBC039) | Ki (NDM-1) | Ki (VIM-2) | Ki (IMP-1)
O=C(O)c1ncsc1NS(=O)(=O)c1ccccc1 [Compound 1, 5-benzenesulfonamido-1,3-thiazole-4-carboxylic acid] | 64 µg/mL | 32 µg/mL | 16 µg/mL | 1200 nM | 320 nM | 80 nM
O=C(O)c1ncsc1NS(=O)(=O)c1csc2ccccc12 [Compound 41, 5-(1-benzothiophene-3-sulfonamido)-1,3-thiazole-4-carboxylic acid] | 16 µg/mL | 64 µg/mL | 4 µg/mL | 670 nM | 220 nM | 80 nM
O=C(O)c1ncsc1NS(=O)(=O)CC1CCOCC1 [Compound 111, 5-[(oxan-4-ylmethyl)sulfonamido]-1,3-thiazole-4-carboxylic acid] | 8 µg/mL | 4 µg/mL | 0.25 µg/mL | 2800 nM | 220 nM | 900 nM
O=C(O)c1ncsc1NS(=O)(=O)c1ccc(N2CCCCC2)nc1 [Compound 138, 5-[6-(piperidin-1-yl)pyridin-3-ylsulfonamido]-1,3-thiazole-4-carboxylic acid] | 16 µg/mL | 32 µg/mL | 1 µg/mL | 430 nM | 10 nM | 130 nM
O=C(O)c1ncsc1NS(=O)(=O)c1ccc(OC2CCNC2)cc1 (centres unmarked) [Compound 163, 5-[4-(pyrrolidin-3-yloxy)phenylsulfonamido]-1,3-thiazole-4-carboxylic acid] | 32 µg/mL | 16 µg/mL | 16 µg/mL | 370 nM | 280 nM | 1000 nM
O=C(O)c1ncsc1NS(=O)(=O)Cc1cccnc1 [Compound 170, 5-(3-pyridylmethylsulfonylamino)thiazole-4-carboxylic acid] | 1 µg/mL | 16 µg/mL | 0.25 µg/mL | 4200 nM | 460 nM | 
N[C@@H](C(=O)N1CCC(c2ccc(S(=O)(=O)Nc3scnc3C(=O)O)cc2)CC1)c1ccccc1 [Compound 172, S-5-[[4-[1-(2-amino-2-phenyl-acetyl)-4-piperidyl]phenyl]sulfonylamino]thiazole-4-carboxylic acid] | 8 µg/mL | 64 µg/mL | 8 µg/mL | 220 nM | 50 nM | 760 nM
N[C@@H](C(=O)N1CCC(c2ccc(S(=O)(=O)Nc3scnc3C(=O)O)cc2)CC1)c1ccccc1 [Compound 173, R-5-[[4-[1-(2-amino-2-phenyl-acetyl)-4-piperidyl]phenyl]sulfonylamino]thiazole-4-carboxylic acid] | 8 µg/mL | 128 µg/mL | 8 µg/mL | 180 nM | 40 nM | 330 nM
